Source: PubChem BioAssay AID1205 (EPA DSSTox, 2008)
Active and inactive are the calls of the source.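 How the source made its calls: active means tumour findings in long-term animal cancer tests in more than one sex, species or organ; inactive means no tumour finding and more than one negative test.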

Test: DSSTox (CPDBAS) Carcinogenic Potency Database Summary MultiCellCall Results
Details: animal carcinogenicity bioassays, multi-cell call summary
Procedure, shortened: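 Summary call drawn from chronic long-term cancer bioassays in rats, mice, hamsters, dogs and nonhuman primates, using the most positive result per sex-species. Score: multispecies=50, multisex=30, multisite=20, summed for combinations.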

| Structure (SMILES) | outcome |
| --- | --- |
| O=NO | active; multisite active; multisex active |
| CCCCN(CCCC)C(=S)[S-].CCCCN(CCCC)C(=S)[S-].[Ni+2] | inactive; multisex inactive |
| COc1c2occc2cc2ccc(=O)oc12 | active; multisite active |
| O=NN(CCO)C(=O)NCCCl | active; multisite active; multisex active |
| Cc1cc(O)cc(C)c1N(C)C | inactive; multisex inactive |
| O=P1(N(CCCl)CCCl)NCCCO1 (stereo not given) | active; multisite active; multisex active; multispecies active |
| CC(C)C/C=N/N(C)C=O | active; multisite active; multisex active |
| C=C(Cl)CSC(=S)N(CC)CC | active; multisite active; multisex active; multispecies active |
| O=NN1CCOC1 | active; multisite active; multisex active |
| C#CC(OC(N)=O)(c1ccccc1)c1ccc(Cl)cc1 (stereo not given) | active; multisite active |
| CC(Oc1cc(Cl)ccc1Cl)C(=O)O (stereo not given) | inactive; multisex inactive |
| Cc1cc(O)c2c(c1)C(=O)c1cc(O)cc(O)c1C2=O | inactive; multisex inactive; multispecies inactive |
| NC(=O)Cc1c([O-])on[n+]1Cc1ccccc1 | active; multisex active; multispecies active |
| Nc1nc(/C=C/c2ccc([N+](=O)[O-])o2)no1 | active; multisite active; multisex active |
| CCN(CC)C(=S)[S-].CCN(CC)C(=S)[S-].[Zn+2] | inactive; multisex inactive |
| COc1ccc(CN(CCN(C)C)c2ccccn2)cc1 | active; multisex active |
| CCN(N=O)C(=O)NCC(C)=O | active; multisite active; multisex active; multispecies active |
| S=C(NC1CCCCC1)NC1CCCCC1 | inactive; multisex inactive; multispecies inactive |
| CCC1CO1 (stereo not given) | active; multisite active |
| NC(=O)/C(=C\c1ccc([N+](=O)[O-])o1)c1ccco1 | active; multisite active; multisex active; multispecies active |
| CCN(Cc1cccc(S(=O)(=O)O)c1)c1ccc(C(=C2C=CC(=[N+](CC)Cc3cccc(S(=O)(=O)O)c3)C=C2)c2ccccc2S(=O)(=O)[O-])cc1 | inactive; multisex inactive; multispecies inactive |
| CCOP(=S)(OCC)Oc1ccc([N+](=O)[O-])cc1 | inactive; multisex inactive; multispecies inactive |
| Clc1ccc(C(c2ccc(Cl)cc2)C(Cl)Cl)cc1 | active; multisite active; multisex active |
| O=C1CN=C(c2ccccc2)c2cc(Cl)ccc2N1CC1CC1 | inactive; multisex inactive; multispecies inactive |

| Structure (SMILES) | outcome |
| --- | --- |
| O=[N+]([O-])c1ccc(-c2cscn2)o1 | active; multisite active |
| Brc1cc(Br)c(-c2cc(Br)c(Br)cc2Br)cc1Br | active; multisex active; multispecies active |
| OCC(O)CCl (stereo not given) | inactive; multisex inactive |
| COP(=O)(OC)OC=C(Cl)Cl | active; multisite active; multisex active; multispecies active |
| CC(C)=CCC/C(C)=C/C=O | inactive; multisex inactive; multispecies inactive |
| c1ccc2occc2c1 | active; multisite active; multisex active; multispecies active |
| Nc1ccc(Cl)cc1N | active; multisite active; multisex active; multispecies active |
| CCC[CH2][Sn]([CH2]CCC)([O]C(C)=O)[O]C(C)=O | inactive; multisex inactive; multispecies inactive |
| CN(C)C(=O)Cl | active; multisite active; multisex active; multispecies active |
| COc1cccc2c1C(=O)c1c(O)c3c(c(O)c1C2=O)C[C@@](O)(C(=O)CO)C[C@@H]3O[C@H]1C[C@H](N)[C@H](O)[C@H](C)O1 | inactive; multispecies inactive |
| Cc1ccc2c(c1[N+](=O)[O-])C(=O)c1ccccc1C2=O | active; multisite active; multisex active; multispecies active |
| CC(C)NCC(O)c1ccc2ccccc2c1 (stereo not given) | inactive; multisex inactive |
| Nc1ccc(N)c2c1C(=O)c1c(N)ccc(N)c1C2=O | active; multisex active |
| O=c1cc[nH]c(=O)[nH]1 | active; multisex active; multispecies active |
| O=C(O)c1cc(Oc2ccc(C(F)(F)F)cc2Cl)ccc1[N+](=O)[O-] | active; multisite active; multisex active |
| CC(CN1c2ccccc2Sc2ccccc21)N(C)C (stereo not given) | inactive; multisex inactive; multispecies inactive |
| Cc1ccccc1N=O | active; multisite active |
| CC(=O)Oc1ccccc1C(=O)O | inactive; multisex inactive; multispecies inactive |
| COc1ccc2nc(S(=O)Cc3ncc(C)c(OC)c3C)[nH]c2c1 (stereo not given) | active; multisex active |
| Cc1cc(C)nc(-c2ccc([N+](=O)[O-])o2)n1 | active; multisite active |
| CCNC(=O)N(CCO)N=O | active; multisite active; multisex active |
| CC1=C(/C=C/C(C)=C/C=C/C(C)=C/C=C/C=C(C)/C=C/C=C(C)/C=C/C2=C(C)CCCC2(C)C)C(C)(C)CCC1 | inactive; multisex inactive; multispecies inactive |
| CC[N+](=O)[O-] | inactive; multisex inactive |
| CC(C)OC(=O)Nc1cccc(Cl)c1 | inactive; multisex inactive; multispecies inactive |

| Structure (SMILES) | outcome |
| --- | --- |
| Nc1c(Br)cc(Br)c2c1C(=O)c1ccccc1C2=O | active; multisite active; multisex active; multispecies active |
| N[C@@H](Cc1ccc(N(CCCl)CCCl)cc1)C(=O)O | active; multisite active; multisex active; multispecies active |
| C#C[C@]1(O)CC[C@H]2[C@@H]3CCC4=C(CCC(=O)C4)[C@H]3CC[C@@]21C | inactive; multisex inactive |
| S=[Se] | active; multisite active; multisex active; multispecies active |
| CN(C)CCN(Cc1ccco1)c1ccccn1 | inactive; multisex inactive |
| CC(=O)CN(CC(O)CO)N=O (stereo not given) | active; multisite active; multispecies active |
| O=C1C(Cl)=C(Cl)C(=O)c2ccccc21 | inactive; multisex inactive |
| CN(N=O)c1ncnc2c1ncn2[C@@H]1O[C@H](CO)[C@@H](O)[C@H]1O | active; multisite active; multisex active |
| COc1ccc(N)c(C)c1 | active; multisex active |
| Nc1ccc(NC(=O)c2ccc(N)cc2)cc1 | inactive; multisex inactive |
| C/C=C/C=C/C(=O)O | inactive; multisex inactive; multispecies inactive |
| OCc1ccco1 | active; multisite active; multispecies active |
| CN(N=O)C(=O)N[C@@H]1[C@@H](O)[C@H](O)[C@@H](CO)O[C@@H]1O | active; multisite active; multisex active; multispecies active |
| Oc1ccc2c(c1)OCO2 | active; multisex active; multispecies active |
| O=C1OC(=O)c2ccccc21 | inactive; multisex inactive; multispecies inactive |
| O=C(O)c1ccc(N=Nc2ccc(O)c(C(=O)O)c2)cc1 | inactive; multisex inactive; multispecies inactive |
| O=C(O)[C@@H]1[C@H](C(=O)O)[C@@]2(Cl)C(Cl)=C(Cl)[C@]1(Cl)C2(Cl)Cl | active; multisite active; multisex active; multispecies active |
| Nc1cc(S(=O)(=O)[O-])cc2cc(S(=O)(=O)[O-])c(N=Nc3ccc(-c4ccc(N=Nc5c(S(=O)(=O)[O-])cc6cc(S(=O)(=O)[O-])cc(N)c6c5O)c(O)c4)cc3O)c(O)c12.[Cu].[Cu].[Na+].[Na+].[Na+].[Na+] | active; multisite active; multisex active; multispecies active |
| CCNN | active; multisite active; multisex active |
| CC(=O)Oc1c(C)c(C)c2c(c1C)CCC(C)(CCCC(C)CCCC(C)CCCC(C)C)O2 (stereo not given) | inactive; multisex inactive |
| O=P(OC(CCl)CCl)(OC(CCl)CCl)OC(CCl)CCl | active; multisite active; multisex active |
| CCCOC(=O)C1c2cc3c(cc2CC(C)C1C(=O)OCCC)OCO3 (stereo not given) | inactive; multisex inactive |
| C=CCc1ccc(OC)c(OC)c1 | active; multisite active; multisex active; multispecies active |
| S=C=Nc1ccccc1 | inactive; multisex inactive |

| Structure (SMILES) | outcome |
| --- | --- |
| CC(C)(CO)CCCCCCC(C)(C)CO | inactive; multisex inactive |
| O=NN1C[C@H](O)C[C@H]1C(=O)O | inactive; multisex inactive |
| CC(=O)Nc1ccc(S(=O)(=O)O)c2cc(S(=O)(=O)O)c(N=Nc3ccc(N=Nc4ccc(S(=O)(=O)O)cc4)c4ccc(S(=O)(=O)O)cc34)c(O)c12 | inactive; multisex inactive; multispecies inactive |
| [Cl-].[Cl-].[Sn+2] | inactive; multisex inactive; multispecies inactive |
| O=NN(CCCC(F)(F)F)CCCC(F)(F)F | active; multisite active; multisex active |
| CN=[N+](C)[O-] | active; multisite active |
| CCOP(=S)(OCC)Oc1cc(C)nc(C(C)C)n1 | inactive; multisex inactive; multispecies inactive |
| CC/C(=C(/CC)c1ccc(O)cc1)c1ccc(O)cc1 | active; multisite active; multisex active; multispecies active |
| CC(=O)c1ccc(S(=O)(=O)NC(=O)NC2CCCCC2)cc1 | inactive; multisex inactive; multispecies inactive |
| c1ccc2sc(SN3CCOCC3)nc2c1 | inactive; multisex inactive |
| CN(C)CCN(Cc1cccs1)c1ccccn1 | active; multisex active |
| Oc1ccccc1O | active; multisex active; multispecies active |
| C=CCN(CCO)N=O | active; multisite active |
| O=NN1CC=CCC1 | active; multisite active |
| COC(=O)C(c1ccccc1)C1CCCCN1N=O (stereo not given) | inactive; multisex inactive |
| CCC1C(=O)OCC1Cc1cncn1C (stereo not given) | inactive; multisex inactive |
| O=C1CCO1 | active; multisex active; multispecies active |
| O=NN(CC(F)(F)F)CC(F)(F)F | inactive; multisex inactive |
| C=CCN(CC(O)CO)N=O (stereo not given) | active; multisite active |
| CCN(CC)CC#CC(C)(C)OC(=O)C(O)(c1ccccc1)C1CCCCC1 (stereo not given) | inactive; multisex inactive; multispecies inactive |
| COc1cc(/C=N/NC(=O)c2ccncc2)ccc1O | active; multisite active |
| C=CCc1ccc2c(c1)OCO2 | active; multisex active; multispecies active |
| O[C@@H]([C@H](O)[C@@H](O)CBr)[C@@H](O)CBr | active; multisite active; multisex active; multispecies active |
